# Measurements published in US10920238B2, “Winter aconite fatty acid elongase and uses thereof in the production of fatty acids” (National Research Council of Canada, priority 2016, dated 2021).
# Test system: EhELO1
# Assay: Elongation efficiency on fatty acid substrates by EhELO1 expressed in Saccharomyces cerevisiae (in vivo activity assay)
# Type: cell-based, Eranthis hyemalis
# Conditions: yeast INVSc1 transformant with EhELO1/pHVX2; 0.25 mM free fatty acid substrate with tergitol, 20° C. for 2 days; calculated from peak area of FAMEs; means of four replicates with standard deviation
# Procedure: To define the diverse activity of the discovered elongase (EhELO1) from winter aconite, a variety of possible common fatty acids and unusual fatty acids that differ in the number and position of double bonds as well as in the chain length was exogenously supplied to the yeast transformant expressing the elongase EhELO1 for in vivo activity assays. The conversion of substrates to products was measured and used for the comparison of elongation efficiencies among fatty acid substrates.
# The EhELO1 coding sequence was released from plasmid, EhELO1/pYES2.1 and sub-cloned into another yeast expression vector pHVX2 under the control of phosphoglycerate kinase 1 constitutive promoter, giving a plasmid EhELO1/pHVX2. The recombinant plasmid was transformed into Saccharomyces cerevisiae INVSc1. The yeast transformants with either EhELO1 or empty vector pHVX2 were grown at 30° C. for 1 day. The overnight cultures were diluted to an OD600 of 0.1 in the same medium supplemented with or without 0.25 mM of various free fatty acids in the presence of tergitol. After incubation at 20° C. for 2 days, yeast cells were harvested and washed once with tergitol and once with water. Total fatty acids in yeast transformants were converted to FAMES by an acid transmethylation process and analyzed by gas chromatography.
row,SMILES,Elongation efficiency (%)
1,CCCCCCCC/C=C\CCCCCCCC(=O)O [18:1-9],3.3 ± 0.07
2,CCCCCC/C=C\CCCCCCCCCC(=O)O [18:1-11],49.4 ± 1.79
3,"CCCCC/C=C\C/C=C\CCCCCCCC(=O)O [18:2-9, 12, linoleic acid]",44.6 ± 3.26
4,"CCCCC/C=C\C/C=C\C/C=C\CCCCC(=O)O [18:3-6,9, 12, γ-linolenic acid]",28.3 ± 1.95
5,"CC/C=C\C/C=C\C/C=C\CCCCCCCC(=O)O [18:3-9, 12, 15, linolenic acid]",54.7 ± 0.83
6,"CC/C=C\C/C=C\C/C=C\C/C=C\CCCCC(=O)O [18:4-6,9, 12, 15]",25.0 ± 0.37
7,CCCCCCCCC=CCCCCCCCCCC(=O)O [20:1-11],12.6 ± 0.23
8,"CCCCC/C=C\C/C=C\CCCCCCCCCC(=O)O [20:2-11, 14, eicosadienoic acid]",48.5 ± 2.12
9,"CCCCC/C=C\C/C=C\C/C=C\CCCCCCC(=O)O [20:3-8, 11, 14]",46.4 ± 1.44
10,"CC/C=C\C/C=C\C/C=C\CCCCCCCCCC(=O)O [20:3-11, 14, 17]",61.8 ± 0.35
11,"CCCCC/C=C\C/C=C\C/C=C\C/C=C\CCCC(=O)O [20:4-5,8, 11, 14, arachidonic acid]",36.2 ± 0.92
12,"CC/C=C\C/C=C\C/C=C\C/C=C\CCCCCCC(=O)O [20:4-8, 11, 14, 17]",50.3 ± 0.53
13,"CC/C=C\C/C=C\C/C=C\C/C=C\C/C=C\CCCC(=O)O [20:5-5,8, 11, 14, 17, eicosapentaenoic acid]",39.8 ± 0.43
14,CCCCCCCC/C=C\CCCCCCCCCCCC(=O)O [22:1-13],0.0 ± 0.0
15,"CCCCC/C=C\C/C=C\CCCCCCCCCCCC(=O)O [22:2-13, 16, docosadienoic acid]",3.4 ± 0.17
16,"CC/C=C\C/C=C\C/C=C\CCCCCCCCCCCC(=O)O [22:3-13, 16, 19, docosatrienoic acid]",9.7 ± 0.13
17,"CCCCC/C=C\C/C=C\C/C=C\C/C=C\CCCCCC(=O)O [22:4-7, 10, 13, 16]",20.5 ± 0.37
18,"CCC=CCC=CCC=CCC=CCCCCCCCCC(=O)O [22:4-10, 13, 16, 19]",32.7 ± 0.49
19,"CC/C=C\C/C=C\C/C=C\C/C=C\C/C=C\CCCCCC(=O)O [22:5-7, 10, 13, 16, 19]",31.9 ± 0.19
20,"CC/C=C\C/C=C\C/C=C\C/C=C\C/C=C\C/C=C\CCC(=O)O [22:6-4,7, 10, 13, 16, 19, docosahexaenoic acid]",10.8 ± 0.52

# Same assay, conditions: yeast transformant expressing EhELO1, comparison among supplied substrates
row,SMILES,Substrate preference of EhELO1 (in words)
1,CCCCCC/C=C\CCCCCCCCCC(=O)O [18:1-11],highly active
2,"CC/C=C\C/C=C\C/C=C\CCCCCCCCCC(=O)O [20:3-11, 14, 17]",most preferred

# Test system: CtELO6
# Assay: Elongation of fatty acid by elongase CtELO6 studied in yeast, Saccharomyces cerevisiae
# Type: cell-based, Conidiobolus thromboides
# Conditions: not given
# Text: Accordingly, it is expected that the production of 20:2:11,14 by CtELO6 in plants may provide increased substrate for EhELO1, providing enhanced production of DDA in plants expressing both CtELO6 and EhELO1.
row,SMILES,elongation efficiency
1,"CCCCC/C=C\C/C=C\CCCCCCCC(=O)O [18:2-9, 12, linoleic acid]",more than 20%
